Results published in US20180042232A1, “Methods and Compositions for Reducing Anguina Nematode Infestation and Improving Grass Quality” (Bayer CropScience LP, priority 2015, published 2018).

How the values were obtained:
Type in all cases: in vivo
Poa annua turfgrass [1] = assay: Crop Circle ACS-430 canopy sensor vegetation index (RVI, NDVI) of a treated Poa annua green, Pebble Beach; settings: for NDVI (Normalized Difference Vegetation Index) / RVI (Ratio Vegetation Index): Pebble Beach, 96 DAA; for NDVI (Normalized Difference Vegetation Index): untreated 0.7064; for RVI (Ratio Vegetation Index): untreated 5.830
From the text: FIG. 3 sets forth comparative RVI measurements of Poa annua turfgrass treated with fluopyram at defined concentrations and doses. In the legend provided, each letter (e.g., “A,” “B,” “C,” etc.) represents a two week interval (e.g., AC=4-week interval).
FIG. 4 sets forth comparative NDVI measurements of Poa annua turfgrass treated with fluopyram at defined concentrations and doses. In the legend provided, each letter (e.g., “A,” “B,” “C,” etc.) represents a two week interval (e.g., AC=4-week interval).
(§1) A Poa annua green is treated by spraying the active ingredient on foliage and waiting at least three hours before irrigating into the thatch/mat layer for upward movement into the stem region (just above the crown) where the nematode resides. One or more applications can be made in 2-8 weeks. The interval may be longer if control has not declined, or treatments are to be applied in different seasons (e.g., spring and fall).
A Crop Circle ACS-430 active crop canopy sensor (Holland Scientific, Inc.) provided classic vegetation index data (RVI=Ratio Vegetation Indices; NDVI=Normalized difference vegetative index) from the turf canopy. Unlike passive radiometric light sensors, the Crop Circle ACS-430 is not limited by ambient lighting conditions and measurements were made by day due to its unique light source technology. Information produced by the sensor can be utilized to quantify the impact of nutrients, water, disease or other growing conditions on the turf plant. The ratio vegetation index (RVI) is formed by dividing the near infra-red irradiance by the red irradiance. Study plots were scanned at intervals to collect this quantitative data. The normalized difference vegetative index (NDVI) is calculated as follows: […]
where VIS and NIR stand for the spectral reflectance measurements acquired in the visible (red) and near-infrared regions, respectively.
In FIG. 3, RVI of a Poa annua green is evaluated 96 DAA. The first column represents RVI at 96 DAA in an untreated sample of turfgrass. The second column represents RVI at 96 DAA in turfgrass treated with 250 g ai/ha fluopyram at 4-week intervals. The third column represents RVI at 96 DAA in turfgrass treated with 500 g ai/ha fluopyram at 4-week intervals. The fourth column represents RVI at 96 DAA in turfgrass treated with 286 g ai/ha azadirachtin applied bi-weekly to the soil. FIG. 3 corresponds to Table 3, below.
In FIG. 4, NDVI of a Poa annua green is evaluated 96 DAA. The first column represents NDVI at 96 DAA in an untreated sample of turfgrass. The second column represents NDVI at 96 DAA in turfgrass treated with 250 g ai/ha fluopyram at 4-week intervals. The third column represents NDVI at 96 DAA in turfgrass treated with 500 g ai/ha fluopyram at 4-week intervals. The fourth column represents NDVI at 96 DAA in turfgrass treated with 286 g ai/ha azadirachtin applied bi-weekly to the soil. FIG. 4 corresponds to Table 4, below.

[2] = system: Anguina pacificae nematode galls; assay: Nematode gall count of a treated Poa annua green, Pebble Beach
From the text: FIG. 5 sets forth comparative numerical representations of Anguina pacificae nematodes galls found in 100 cc untreated soil, 100 cc soil treated with azadirachtin, and 100 cc soil treated with fluopyram at defined concentrations and doses. In the legend provided, each letter (e.g., “A,” “B,” “C,” etc.) represents a two week interval (e.g., AC=4-week interval).
Example 2 describes effects of various treatments on nematode population on a Poa annua green at Pebble Beach.
(§2) Trials are kept free of any pests that can interfere or impact and nematode evaluations and yields.
as §1
In FIG. 5, a Poa annua green is evaluated and counts of nematode galls per 100 cc soil are taken 87 and 139 days after anthesis (DAA). The first and fifth columns represent nematode gall count at 87 and 139 DAA, respectively, in an untreated sample of turfgrass. The second and sixth columns represent nematode gall count at 87 and 139 DAA, respectively, in turfgrass treated with 250 g ai/ha fluopyram at 4-week intervals. The third and seventh columns represent nematode gall count at 87 and 139 DAA, respectively, in turfgrass treated with 500 g ai/ha fluopyram at 4-week intervals. The fourth and eighth columns represent nematode gall count at 87 and 139 DAA, respectively, in turfgrass treated with 286 g ai/ha azadirachtin applied bi-weekly to the soil. FIG. 5 corresponds to Table 5 (87 DAA) and Table 6 (139 DAA), below.

Poa annua turfgrass [3] = assay: Turf quality evaluation of a treated Poa annua green, Pebble Beach; settings: 96 DAA, 1-9 scale (9 = best, 6 = acceptable), untreated 4.8
Procedure: FIG. 2 sets forth comparative turf quality evaluations of Poa annua turfgrass treated with fluopyram at defined concentrations and doses. In the legend provided, each letter (e.g., “A,” “B,” “C,” etc.) represents a two week interval (e.g., AC=4-week interval).
as §1
In FIG. 2, turf quality of a Poa annua green is evaluated 96 DAA. The first column represents turf quality at 96 DAA in an untreated sample of turfgrass. The second column represents turf quality at 96 DAA in turfgrass treated with 250 g ai/ha fluopyram at 4-week intervals. The third column represents turf quality at 96 DAA in turfgrass treated with 500 g ai/ha fluopyram at 4-week intervals. The fourth column represents turf quality at 96 DAA in turfgrass treated with 286 g ai/ha azadirachtin applied bi-weekly to the soil. FIG. 2 corresponds to Table 2, below.

[4] = system: Anguina pacificae nematodes; assay: Nematode count in soil of a treated Poa annua green, Pebble Beach; settings: 87 DAA, untreated 212.5
From the text: FIG. 1 sets forth comparative numerical representations of Anguina pacificae nematodes found in 100 cc untreated soil, 100 cc soil treated with azadirachtin, and 100 cc soil treated with fluopyram at defined concentrations and doses. In the legend provided, each letter (e.g., “A,” “B,” “C,” etc.) represents a two week interval (e.g., AC=4-week interval).
Example 1 describes effects of various treatments on nematode population on a Poa annua green at Pebble Beach.
as §2, §1
In FIG. 1, a Poa annua green is evaluated and counts of nematodes per 100 cc soil are taken 87 days after anthesis (DAA). The first column represents nematode count at 87 DAA in an untreated sample of turfgrass. The second column represents nematode count at 87 DAA in turfgrass treated with 250 g ai/ha fluopyram at 4-week intervals. The third column represents nematode count at 87 DAA in turfgrass treated with 500 g ai/ha fluopyram at 4-week intervals. The fourth column represents nematode count at 87 DAA in turfgrass treated with 286 g ai/ha azadirachtin applied bi-weekly to the soil. FIG. 1 corresponds to Table 1, below.

[5] = system: Anguina pacificae nematode galls; assay: Nematode gall count of a treated Poa annua green, The Links at Spanish Bay; settings: 171 DAA, untreated 22.8
From the text: FIG. 6 sets forth comparative numerical representations of Anguina pacificae nematode galls found in 100 cc untreated soil, 100 cc soil treated with azadirachtin+cimectacarb, and 100 cc soil treated with fluopyram at defined concentrations and doses. In the legend provided, each letter (e.g., “A,” “B,” “C,” etc.) represents a two week interval (e.g., AC=4-week interval).
Example 3 describes effects of various treatments on nematode population on a Poa annua green at The Links at Spanish Bay.
as §2, §1
In FIG. 6, a Poa annua green is evaluated and counts of nematode galls per 100 cc soil are taken 171 days after anthesis (DAA). The first column represents nematode count at 171 DAA in an untreated sample of turfgrass. The second column represents nematode count at 171 DAA in turfgrass treated with 250 g ai/ha fluopyram at 4-week intervals. […]

Poa annua turfgrass [6] = assay: Turf quality evaluation of a treated Poa annua green, The Links at Spanish Bay; settings: 179 DAA, 0-10 scale (10 = best), untreated 5.5
Procedure: FIG. 7 sets forth comparative turf quality evaluations of Poa annua turfgrass treated with fluopyram at defined concentrations and doses. In the legend provided, each letter (e.g., “A,” “B,” “C,” etc.) represents a two week interval (e.g., AC=4-week interval).
as §1
In FIG. 7, turf quality of a Poa annua green is evaluated 179 DAA. The first column represents turf quality at 179 DAA in an untreated sample of turfgrass. The second column represents turf quality at 179 DAA in turfgrass treated with 250 g ai/ha fluopyram at 4-week intervals. The third column represents turf quality at 179 DAA in turfgrass treated with 500 g ai/ha fluopyram at 4-week intervals. The fourth column represents turf quality at 179 DAA in turfgrass treated with 286 g ai/ha azadirachtin applied bi-weekly to the soil. FIG. 7 corresponds to Table 8, below.

[7] = 286 g ai/ha applied bi-weekly to the soil
[8] = 250 g ai/ha at 4-week intervals
[9] = 500 g ai/ha at 4-week intervals

C/C=C(\C)C(=O)O[C@H]1C[C@@H](OC(C)=O)[C@@]2(C(=O)OC)CO[C@H]3[C@@H](O)[C@@](C)([C@]45O[C@@]4(C)[C@H]4C[C@@H]5O[C@@H]5OC=C[C@@]54O)[C@H]4[C@]1(CO[C@]4(O)C(=O)OC)[C@@H]32 [azadirachtin]
NDVI (Normalized Difference Vegetation Index) (Poa annua turfgrass [1]; [7]): 0.6865 | RVI (Ratio Vegetation Index) (Poa annua turfgrass [1]; [7]): 5.425 | Nematode galls/100 cc soil ([2]; 286 g ai/ha applied bi-weekly to the soil, 87 DAA, untreated 31): 34 galls/100 cc soil | Nematode galls/100 cc soil ([2]; 286 g ai/ha applied bi-weekly to the soil, 139 DAA, untreated 19): 16 galls/100 cc soil | Turf Quality (Poa annua turfgrass [3]; [7]): 4.8 | Nematodes/100 cc soil [4, 7]: 270 nematodes/100 cc soil

O=C(NCCc1ncc(C(F)(F)F)cc1Cl)c1ccccc1C(F)(F)F [fluopyram, N-{2-[3-chloro-5-(trifluoromethyl)-2-pyridinyl]ethyl}-2-(trifluoromethyl) benzamide]
NDVI (Normalized Difference Vegetation Index) (Poa annua turfgrass [1]; [8]): 0.7634 | RVI (Ratio Vegetation Index) (Poa annua turfgrass [1]; [8]): 7.475 | NDVI (Normalized Difference Vegetation Index) (Poa annua turfgrass [1]; [9]): 0.7908 | RVI (Ratio Vegetation Index) (Poa annua turfgrass [1]; [9]): 8.598 | Vegetative index (RVI and NDVI) compared to the untreated control (Poa annua turfgrass [1]; averaged over the course of the study, Poa annua turfgrass): positively enhanced vegetative index | Nematode galls/100 cc soil ([2]; 250 g ai/ha at 4-week intervals, 87 DAA, untreated 31): 6 galls/100 cc soil | Nematode galls/100 cc soil ([2]; 250 g ai/ha at 4-week intervals, 139 DAA, untreated 19): 2 galls/100 cc soil | Nematode galls/100 cc soil ([2]; 500 g ai/ha at 4-week intervals, 87 DAA, untreated 31): 3 galls/100 cc soil | Nematode galls/100 cc soil ([2]; 500 g ai/ha at 4-week intervals, 139 DAA, untreated 19): 0.5 galls/100 cc soil | Nematode galls/100 cc soil [5, 8]: 4.3 galls/100 cc soil | Nematode galls/100 cc soil [5, 9]: 1.8 galls/100 cc soil | Turf Quality (Poa annua turfgrass [3]; [8]): 7.4 | Turf Quality (Poa annua turfgrass [3]; [9]): 8.1 | Nematodes/100 cc soil [4, 8]: 17.5 nematodes/100 cc soil | Nematodes/100 cc soil [4, 9]: 17.5 nematodes/100 cc soil | Turf Quality (Poa annua turfgrass [6]; [8]): 6.0 | Turf Quality (Poa annua turfgrass [6]; [9]): 8.5
